The subject of assay [1] is α-D-mannosidase of the leguminous plant origin. Particulars: qualitative, prior art; cited from earlier work.
The target in assay [2] is T1, α-D-mannosidase of the rat epididymis origin (Rattus norvegicus, UniProt Q6P762).
T1 sequence (Q6P762 50-1009): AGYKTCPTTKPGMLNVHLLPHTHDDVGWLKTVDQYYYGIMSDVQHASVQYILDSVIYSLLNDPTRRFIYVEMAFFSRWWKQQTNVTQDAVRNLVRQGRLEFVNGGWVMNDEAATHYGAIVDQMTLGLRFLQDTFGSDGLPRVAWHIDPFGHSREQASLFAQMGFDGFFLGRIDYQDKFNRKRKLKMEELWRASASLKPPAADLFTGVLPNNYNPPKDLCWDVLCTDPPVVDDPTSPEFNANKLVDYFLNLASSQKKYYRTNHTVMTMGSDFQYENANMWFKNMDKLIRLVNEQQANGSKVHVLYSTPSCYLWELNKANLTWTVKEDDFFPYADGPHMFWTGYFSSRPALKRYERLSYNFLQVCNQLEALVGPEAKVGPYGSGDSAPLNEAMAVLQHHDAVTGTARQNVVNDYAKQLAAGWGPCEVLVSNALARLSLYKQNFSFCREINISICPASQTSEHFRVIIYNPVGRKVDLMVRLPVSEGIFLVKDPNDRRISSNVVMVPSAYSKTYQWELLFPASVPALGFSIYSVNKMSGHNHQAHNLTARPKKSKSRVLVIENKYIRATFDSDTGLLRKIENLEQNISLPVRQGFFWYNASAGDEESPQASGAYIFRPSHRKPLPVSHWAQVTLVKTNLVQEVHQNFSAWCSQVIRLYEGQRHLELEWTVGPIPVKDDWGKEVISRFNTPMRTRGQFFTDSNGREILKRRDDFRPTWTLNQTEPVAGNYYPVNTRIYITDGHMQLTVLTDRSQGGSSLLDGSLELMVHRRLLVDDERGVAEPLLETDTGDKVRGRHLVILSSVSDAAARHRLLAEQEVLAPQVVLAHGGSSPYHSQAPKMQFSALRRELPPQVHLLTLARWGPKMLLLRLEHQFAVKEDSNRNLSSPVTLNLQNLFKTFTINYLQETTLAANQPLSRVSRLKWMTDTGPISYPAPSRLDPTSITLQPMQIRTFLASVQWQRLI
As to the kind of experiment: α-D-mannosidase inhibitory activity, colorimetric, p-nitrophenyl-α-D-mannopyranoside substrate. The format is biochemical. Particulars: qualitative statement. The protocol:
Assay of the compounds according to this invention is performed by measuring their α-D-mannosidase inhibitory activity. The activity of α-D-mannosidase is determined by colorimetrically measuring the amount of p-nitrophenol that has been liberated when p-nitrophenyl-α-D-mannopyranoside (Koch-Light Laboratories, England) as a substrate is hydrolyzed with α-D-mannosidase of the rat epididymis origin (a fraction obtained by precipitation with 20 - 80% ammonium sulfate at the Institute of Microbial Chemistry). Details of said procedure are as follows: p-Nitro-phenyl-α-D-mannopyranoside is dissolved in 50% methanol to make a 0.04M solution. To 0.05 ml of the 0.04M substrate solution are added 0.25 ml of a 0.1M acetate buffer (pH 4.5) and 0.15 ml of water or an aqueous solution containing the test compound. The mixture is heated at 37°C for 3 minutes, and 0.05 ml of -D-mannosidase is added. […] The reaction mixture is measured for the absorbance (A) at 400 nm. Separately, the control mixture comprising only water and being free from the aforesaid test compound solution is measured for the absorbance termed (b). The α-D-mannosidase inhibition rate (%) is calculated from the equation (b - a)/b x 100. […]

“Also recorded” adds a separate entry of the source.

Turning to `O[C@H]1[C@H]2[C@H](O)CCCN2C[C@H]1O` [Swainsonine], in assay [1], the “inhibition of α-D-mannosidase of the leguminous plant origin, in words” value is “inhibits”.

Regarding `C[S+]([O-])C1C(N)C(O)C(O)C1O` (stereo not drawn) [mannostatin S-oxide], the “inhibition of α-D-mannosidase of the animal origin (rat epididymides), in words” value in assay [2] was “stronghly inhibit; also recorded: strongly inhibit”.

Regarding `CSC1C(N)C(O)C(O)C1O` (stereo not drawn) [mannostatin], in assay [2], the “inhibition of α-D-mannosidase of the animal origin (rat epididymides), in words” value is recorded as “stronghly inhibit; also recorded: strongly inhibit”.

The values are drawn from EP0175291B1, “Novel alpha-D-mannosidase inhibitor” (MICROBIAL CHEMISTRY RESEARCH FOUNDATION, priority 1984, dated 1986).
